Among the data in patent US11279714B2, “Anti-infective compounds” (priority 2014, dated 2022) are melting point and MIC50 values, retold here.

Series [1] has as its system M. tuberculosis H37Rv expressing the green fluorescent protein (H37Rv-GFP). Description: microbe, parasite or virus in culture. The class given is cell-based. As to conditions: Mycobacterium tuberculosis, H37RV, 120 h; read-out: QUM (MIC50).
Series [2] relates to Raw 264.7 cells infected with H37Rv-GFP. Nature of the series: microbe, parasite or virus in culture. The class given is cell-based, M. tuberculosis. As to conditions: Mycobacterium tuberculosis, H37RV, 120 h; read-out: QIM (MIC50).

Values after ≈ are worked out from the molar mass of the structure shown.

For orientation: melting point means the temperature of the solid-liquid transition. As to `COc1ccc(NC(=O)c2cc3sc(N4CCC(OCc5ccccc5)CC4)nc3s2)cc1` [Compound 77], the melting point is 190.3 °C. In series [1], the MIC50 was in the range of 1 to 20 µM (≈ 0.48 to 9.59 µg/mL). Besides, the MIC50 in series [2] was < 1 µM.
Compound `Cn1ccc(-c2ccc(NC(=O)c3cc4sc(N5CCOCC5)nc4s3)cc2)n1` [Compound 145] came in with a melting point of 314 °C. Besides, the MIC50 in series [1] is 1 to 20 µM (≈ 0.426 to 8.51 µg/mL). Also, the MIC50 in series [2] was < 1 µM.
For `O=C(Nc1ccc2ncoc2c1)c1cc2sc(N3CCOCC3)nc2s1` [Compound 101] the same measures were 281.8 °C, 1 to 20 µM (≈ 0.386 to 7.73 µg/mL) and < 1 µM.
Regarding `COc1ccc(NC(=O)c2cc3ncsc3s2)cc1` [Compound 21], the melting point amounted to 236 °C. The MIC50 in series [1] was > 20 µM. The MIC50 in series [2] was > 20 µM.
For the compound `Cc1nnc(-c2ccc(NC(=O)c3cc4sc(N5CCC(O)CC5)nc4s3)cc2)o1` [Compound 123], the melting point was 334.4 °C. In addition, the MIC50 in series [1] was > 20 µM. Further, the MIC50 in series [2] is > 20 µM.
For the compound `O=C(Nc1cccc(OCc2ccccc2)c1)c1cc2sc(N3CCOCC3)nc2s1` [Compound 109], the melting point stood at 223.4 °C. For the same compound, the MIC50 in series [1] was > 20 µM. In addition, the MIC50 in series [2] is > 20 µM.
For the compound `O=C(Nc1cc(-c2ccccc2)[nH]n1)c1cc2sc(N3CCOCC3)nc2s1` [Compound 160], the melting point was found to be 305 °C. Also, the MIC50 in series [1] was > 20 µM. Besides, the MIC50 in series [2] was < 1 µM.
As to `COc1ccc(CNc2nc3sc(C(=O)Nc4ccc(OC)cc4)cc3s2)cc1` [Compound 63], the melting point was 243 °C. For the same compound, the MIC50 in series [1] is > 20 µM. The MIC50 in series [2] was < 1 µM.
For `O=C(Nc1ccc(-c2ccn(C3CCCCO3)n2)cc1)c1cc2sc(N3CCOCC3)nc2s1` (centres unmarked) [Compound 155] the same measures were 293 °C, > 20 µM and < 1 µM.
Compound `O=C(Nc1ccc2ncccc2c1)c1cc2sc(N3CCCCC3)nc2s1` [Compound 40] had a melting point of 279.5 °C. Besides, the MIC50 in series [1] is 1 to 20 µM (≈ 0.395 to 7.89 µg/mL). The MIC50 in series [2] was < 1 µM.
For `O=C(Nc1ccc(F)cc1)c1cc2sc(N3CCNCC3)nc2s1` [Compound 139], the melting point is 247.5 °C. Further, the MIC50 in series [1] fell in the range of 1 to 20 µM (≈ 0.362 to 7.25 µg/mL). The MIC50 in series [2] lay in the range of 1 to 20 µM (≈ 0.362 to 7.25 µg/mL).
`COC(=O)c1ccc(N(C)C(=O)c2cc3nc(N4CCCCC4)sc3s2)cc1` [Compound 31]: the melting point was 178.5 °C. Moreover, the MIC50 in series [1] is > 20 µM.
In turn, `Cc1nc2c(NC(=O)c3cc4sc(N5CCOCC5)nc4s3)cccc2o1` [Compound 102] returned a melting point of 209.3 °C. In series [1], the MIC50 was > 20 µM. For the same compound, the MIC50 in series [2] was > 20 µM.
For `O=C(Nc1ccc(-c2cc3n(n2)CCO3)cc1)c1cc2sc(N3CCOCC3)nc2s1` [Compound 164], the melting point was found to be 361.2 °C. Further, the MIC50 in series [1] is > 20 µM. For the same compound, the MIC50 in series [2] is > 20 µM.
`CC(C)(C)OC(=O)c1ccc(NC(=O)c2cc3sc(N4CCOCC4)nc3s2)cc1` [Compound 129]: the melting point is 244 °C. Moreover, the MIC50 in series [1] was in the range of 1 to 20 µM (≈ 0.446 to 8.91 µg/mL). The MIC50 in series [2] is < 1 µM.
`CC(C)(C)OC(=O)n1ncc2cc(NC(=O)c3cc4sc(N5CCOCC5)nc4s3)ccc21` [Compound 88]: the melting point came out at 331.7 °C. For the same compound, in series [1], the MIC50 is > 20 µM. For the same compound, in series [2], the MIC50 was > 20 µM.
As to `O=C(Nc1ccc(N2CCC(Cc3ccc(F)cc3)CC2)cc1)c1cc2sc(N3CCOCC3)nc2s1` [Compound 183], the melting point turned out to be 246 °C. In addition, in series [1], the MIC50 was > 20 µM. Besides, the MIC50 in series [2] was < 1 µM.
For the compound `O=C(c1cc2nc(N3CCCCC3)sc2s1)N1CCOCC1` [Compound 26], the melting point stood at 188 °C. In addition, the MIC50 in series [1] is > 20 µM. For the same compound, in series [2], the MIC50 was > 20 µM.
`O=C(Nc1ccc(F)c(F)c1)c1ccc2nc(N3CCCCC3)ccc2c1` [Compound 16]: the melting point is 194 °C. Besides, the MIC50 in series [1] was > 20 µM. Also, the MIC50 in series [2] was > 20 µM.
In turn, `COC(=O)c1ccc(CCNC(=O)c2cc3sc(N4CCCCC4)nc3s2)cc1` [Compound 43] registered a melting point of 212.9 °C. Moreover, the MIC50 in series [1] lay within 1 to 20 µM (≈ 0.43 to 8.59 µg/mL). Further, the MIC50 in series [2] is < 1 µM.
`N#Cc1ccc(NC(=O)c2cc3nc(N4CCCCC4)sc3s2)cc1` [Compound 32] showed a melting point of 163 °C. Further, the MIC50 in series [1] is 1 to 20 µM (≈ 0.368 to 7.37 µg/mL). For the same compound, the MIC50 in series [2] was < 1 µM.
The compound `Cc1nc2cc(NC(=O)c3sc4nc(N5CCOCC5)sc4c3Br)ccc2o1` [Compound 157] displayed a melting point of 269 °C. The MIC50 in series [1] is > 20 µM. Besides, the MIC50 in series [2] is > 20 µM.
In turn, `O=C(Nc1ccc(F)cc1)c1cc2sc(N3CCC(O)CC3)nc2s1` [Compound 134] returned a melting point of 241.7 °C. Also, the MIC50 in series [1] was < 1 µM. The MIC50 in series [2] is < 1 µM.
With `CC(CNC(=O)c1ccc2nc(N3CCCCC3)sc2c1)c1ccccc1` (centres unmarked) [Compound 1], the melting point is 196 °C. Further, the MIC50 in series [1] was > 20 µM. Further, in series [2], the MIC50 was > 20 µM.
Regarding `COc1ccc(NC(=O)c2cc3sc(N4CC5CC4CN5C(=O)OC(C)(C)C)nc3s2)cc1` (centres unmarked) [Compound 93], the melting point is 249 °C. Also, the MIC50 in series [1] was > 20 µM. Also, the MIC50 in series [2] was > 20 µM.
For `COc1ccc(NC(=O)c2cc3sc(NCc4ccc(OC)nc4)nc3s2)cc1` [Compound 104], the melting point is 230.9 °C. The MIC50 in series [1] is < 1 µM. The MIC50 in series [2] was < 1 µM.
`Cc1nc2cc(NC(=O)c3cc4sc(N5CCC(C(=O)NCc6ccccc6)CC5)nc4s3)ccc2o1` [Compound 186] gave a melting point of 264.9 °C. For the same compound, in series [1], the MIC50 is > 20 µM. Further, the MIC50 in series [2] is < 1 µM.
The compound `O=C(Nc1ccc(-c2cc[nH]n2)cc1)c1cc2sc(N3CCOCC3)nc2s1` [Compound 156] showed a melting point of 319 °C. Further, the MIC50 in series [1] is 1 to 20 µM (≈ 0.412 to 8.23 µg/mL). Besides, the MIC50 in series [2] is < 1 µM.
For `COc1ccc(CNC(=O)c2cc3sc(N4CCCCC4)nc3s2)cc1` [Compound 59] the same measures were 142 °C, > 20 µM and > 20 µM.
For `O=C(Nc1ccc(F)nc1)c1cc2sc(N3CCC(CO)CC3)nc2s1` [Compound 143] the same measures were 240.8 °C, < 1 µM and < 1 µM.
The compound `Cc1nc2ccc(NC(=O)c3cc4sc(N5CCCCC5)nc4s3)cc2o1` [Compound 48] returned a melting point of 259.2 °C. Besides, in series [1], the MIC50 was < 1 µM. In addition, the MIC50 in series [2] was < 1 µM.
On to `O=C(Nc1ccccc1)c1cc2nc(N3CCCCC3)sc2s1` [Compound 25], for which the melting point worked out at 222.6 °C. Also, in series [1], the MIC50 was > 20 µM. Further, the MIC50 in series [2] was 1 to 20 µM (≈ 0.343 to 6.87 µg/mL).
In the case of `COc1ccc(NC(=O)c2cc3sc(N4CCCC(N)C4)nc3s2)cc1` (centres unmarked) [Compound 119], the melting point was 232 °C. The MIC50 in series [1] is > 20 µM. Besides, the MIC50 in series [2] is < 1 µM.
Regarding `CCc1cc2oc(C)nc2cc1NC(=O)c1cc2sc(N3CCOCC3)nc2s1` [Compound 150], the melting point came to 244 °C. In addition, in series [1], the MIC50 was > 20 µM. Also, in series [2], the MIC50 is > 20 µM.
`COc1ccc(NC(=O)c2cc3sc(NC4CCCCC4)nc3s2)cc1` [Compound 79] displayed a melting point of 231 °C. Also, the MIC50 in series [1] was > 20 µM. The MIC50 in series [2] was < 1 µM.
As to `COc1ccc(NC(=O)c2cc3sc(NC(=O)C4CCCCC4)nc3s2)cc1` [Compound 65], the melting point amounted to 271 °C. Further, the MIC50 in series [1] is > 20 µM. Besides, the MIC50 in series [2] lay within 1 to 20 µM (≈ 0.416 to 8.31 µg/mL).
Compound `COc1ccc(NC(=O)c2cc3sc(N)nc3s2)cc1` [Compound 64] had a melting point of 260 °C. In addition, in series [1], the MIC50 is > 20 µM. In addition, the MIC50 in series [2] was 1 to 20 µM (≈ 0.305 to 6.11 µg/mL).
The compound `O=C(Nc1ccc(C(F)(F)F)cc1)c1cc2sc(N3CCCCC3)nc2s1` [Compound 41] registered a melting point of 289.2 °C. In addition, the MIC50 in series [1] is > 20 µM. In addition, in series [2], the MIC50 is < 1 µM.
The compound `COc1ccc(NC(=O)c2cc3sc(N4CC5CC4CN5)nc3s2)cc1` (centres unmarked) [Compound 94] came in with a melting point of 161 °C. For the same compound, in series [1], the MIC50 is > 20 µM. Moreover, in series [2], the MIC50 was > 20 µM.
As to `Cc1nc2cc(NC(=O)c3cc4sc(N5CCOC(C(=O)N(C)C)C5)nc4s3)ccc2o1` (centres unmarked) [Compound 169], the melting point was 247.5 °C. The MIC50 in series [1] lay in the range of 1 to 20 µM (≈ 0.472 to 9.43 µg/mL). In addition, the MIC50 in series [2] lay within 1 to 20 µM (≈ 0.472 to 9.43 µg/mL).
The compound `O=C(Nc1ccc(OC(F)(F)F)cc1)c1cc2sc(N3CCCCC3)nc2s1` [Compound 58] showed a melting point of 239 °C. Moreover, the MIC50 in series [1] fell in the range of 1 to 20 µM (≈ 0.427 to 8.55 µg/mL). Besides, the MIC50 in series [2] was < 1 µM.
The compound `Cc1nc2cc(NC(=O)c3cn4nc(N5CCOCC5)sc4n3)ccc2o1` [Compound 189] had a melting point of 311 °C. Also, in series [1], the MIC50 is > 20 µM. Besides, the MIC50 in series [2] is > 20 µM.
In turn, `Cc1nc2ccc(NC(=O)c3cc4nc(N5CCCCC5)sc4s3)cc2o1` [Compound 34] gave a melting point of 213 °C. Moreover, in series [1], the MIC50 was > 20 µM.
The compound `O=C(Nc1ccc(C(F)(F)F)cc1)c1cc2nc(N3CCCCC3)sc2s1` [Compound 33] had a melting point of 228.6 °C. Besides, in series [1], the MIC50 is > 20 µM.
In the case of `COC(=O)C1CCC(NC(=O)c2cc3nc(N4CCCCC4)sc3s2)CC1` (centres unmarked) [Compound 30], the melting point turned out to be 191 °C. The MIC50 in series [1] is > 20 µM.
On to `O=C(Nc1ccc(F)cc1)c1cc2sc(NCCCN3CCOCC3)nc2s1` [Compound 327], for which the MIC50 in series [1] and in series [2] was 1 to 20 µM (≈ 0.421 to 8.41 µg/mL) in each case.
Turning to `CCc1ccc(NC(=O)c2cc3nc(N4CCCCC4)sc3s2)cc1` [Compound 12], the MIC50 in series [1] and in series [2] was > 20 µM in each case.
Regarding `Cc1nc2cc(NC(=O)c3cc4sc(N5CCC(C(=O)c6ccc(Cl)cc6)CC5)nc4s3)ccc2o1` [Compound 205], the MIC50 in series [1] and in series [2] was > 20 µM in each case.
